We go through 28 compounds from US5306720A, “Piperidine derivative and pharmaceutical composition” (priority 1985, dated 1994).

The subject of one data set is ddY male mouse. Nature of the data set: Acute Toxicity Test for ddY Male Mouse. The class given is in vivo. The note with it: oral to mouse, ddY male mice; for number of deaths / number of animals used, 100 mg: 100 mg (mg/kg); for number of deaths / number of animals used, 300 mg: 300 mg (mg/kg). The protocol: Acute Toxicity Test for ddY Male Mouse
Acute toxicity test was carried out using ddY male mice.

The target of another data set is T1, acetylcholinesterase (Mus musculus, UniProt P21836).
T1 construct: Using a mouse brain homogenate as a source of acetylcholinesterase; from tissue; host or cells: mouse brain homogenate
Nature of the data set: biochemical. The class given is biochemical. As to conditions: read-out: AChE inhibitory activity IC50.

[1] abbreviates: mouse brain homogenate, thiocholine method, absorbance at 412 nm.

Counter-ions that a name gives are not always drawn. Like-named read-outs stand apart in the source and are kept apart here.

T1 sequence (P21836 32-614): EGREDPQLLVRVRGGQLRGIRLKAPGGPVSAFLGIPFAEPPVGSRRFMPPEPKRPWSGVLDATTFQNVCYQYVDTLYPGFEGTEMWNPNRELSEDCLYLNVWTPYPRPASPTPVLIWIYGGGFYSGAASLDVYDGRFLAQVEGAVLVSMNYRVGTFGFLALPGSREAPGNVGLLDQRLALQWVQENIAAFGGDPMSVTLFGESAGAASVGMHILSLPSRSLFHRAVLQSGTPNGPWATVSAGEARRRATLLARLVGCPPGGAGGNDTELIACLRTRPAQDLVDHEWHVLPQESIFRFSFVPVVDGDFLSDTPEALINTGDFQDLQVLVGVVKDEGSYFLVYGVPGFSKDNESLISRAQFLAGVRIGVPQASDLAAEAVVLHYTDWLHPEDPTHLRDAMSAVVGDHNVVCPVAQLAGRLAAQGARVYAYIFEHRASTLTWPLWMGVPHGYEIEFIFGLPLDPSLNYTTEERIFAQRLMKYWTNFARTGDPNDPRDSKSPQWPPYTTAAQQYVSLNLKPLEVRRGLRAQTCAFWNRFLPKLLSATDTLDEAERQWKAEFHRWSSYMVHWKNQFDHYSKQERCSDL
Description for acetylcholinesterase: Acetylcholinesterase Inhibitory Action using Mouse Brain Homogenate
Using a mouse brain homogenate as a source of acetylcholinesterase, the esterase activity was measured by a thiocholine method. Acetylcholine as a substrate, the compound of the invention as a substance to test and 5,5'-dithio-bis(2-nitrobenzoic acid), called also DTNB, were added to the mouse brain homogenate. After incubation, thiocholine produced was reacted with DTNB to form a yellow product.

What is called IC50 is the concentration that inhibits the measured activity by half. As for `CN(CCC1CCN(Cc2ccccc2)CC1)C(=O)c1ccc(S(=O)(=O)Cc2ccccc2)cc1` [Example 4, N-methyl-N-[4'-(1'-benzylpiperidine)ethyl]-4-benzylsulfonylbenzamide, hydrochloride], in the data set on ddY male mouse, the “number of deaths / number of animals used, 100 mg” value (shortened to “number of deaths / number … 100 mg”) is given as 0/3 and the “number of deaths / number of animals used, 300 mg” value (from here on “number of deaths / number … 300 mg”) is listed as 2/4. For the same compound, on acetylcholinesterase (setting [1]), the half-inhibitory concentration (IC50) amounted to 0.6 nM.

For `CN(CCC1CCN(Cc2ccccc2)CC1)C(=O)c1ccncc1` [Example 5, N-methyl-N-[4'-(1'-benzylpiperidyl)ethyl] isonicotinic acid amide hydrochloride], in the data set with ddY male mouse, the “number of deaths / number … 100 mg” value is on record as 1/4 and the “number of deaths / number … 300 mg” value was 4/4. In addition, on acetylcholinesterase (setting [1]), the half-maximal inhibitory concentration (IC50) was found to be 88 nM.

Regarding `CN(CCC1CCN(Cc2ccccc2)CC1)C(=O)c1ccc(S(=O)(=O)C2CCCC2)cc1` [Example 6, N-methyl-N-[4'-(1'-benzylpiperidine)ethyl]-4-cyclopentylsulfonylbenzamide.hydrochloride], the IC50 on acetylcholinesterase (setting [1]) worked out at 21 nM.

For `O=C1c2ccc([N+](=O)[O-])cc2C(=O)N1CCC1CCN(Cc2ccccc2)CC1` [Example 7, N-[2-(N'-benzylpiperidino-4)ethyl]-4-nitrophthalimide.hydrochloride], the “number of deaths / number … 300 mg” value in the data set on ddY male mouse is recorded as 0/3. Moreover, on acetylcholinesterase (setting [1]), the half-inhibitory concentration (IC50) amounted to 14 nM.

With `O=C1c2nccnc2C(=O)N1CCC1CCN(Cc2ccccc2)CC1` [Example 8, N-[2-(N'-benzylpiperidino-4)ethyl]-2,3-pyrazinedicarboxylic acid imide], the IC50 on acetylcholinesterase (setting [1]) is 80 nM.

On to `O=C1c2cccc3cccc(c23)C(=O)N1CCC1CCN(Cc2ccccc2)CC1` [Example 9, N-[2-(N'-benzylpiperidino-4)ethyl]-1,8-naphthalimide], for which the IC50 at acetylcholinesterase (setting [1]) came out at 5.5 nM.

Take `O=c1[nH]c2ccccc2c(=O)n1CCC1CCN(Cc2ccccc2)CC1` [Example 10, 3-[2-(1-benzyl-4-piperidino)ethyl]-2,4-(1H,3H)-quinazolidione.hydrochloride]: in the data set on ddY male mouse, the “number of deaths / number … 100 mg” value is reported as 3/4.

Consider `O=C(NCCC1CCN(Cc2ccccc2)CC1)c1ccc2c(c1)C(=O)c1ccccc1C2=O` [Example 25], for which the half-inhibitory concentration (IC50) at acetylcholinesterase (setting [1]) turned out to be 4.5 nM.

For `O=C(NCCC1CCN(Cc2ccccc2)CC1)c1ccc(C(=O)NCc2ccccc2)cc1` [Example 26], at acetylcholinesterase (setting [1]), the IC50 turned out to be 9 nM.

For the compound `CN(CCC1CCN(Cc2ccccc2)CC1)C(=O)c1ccc(-c2ccccc2)cc1` [Example 32], at acetylcholinesterase (setting [1]), the IC50 was 4.3 nM.

For the compound `CN(CCC1CCN(Cc2ccc(O)cc2)CC1)C(=O)c1ccc(S(=O)(=O)Cc2ccccc2)cc1` [Example 41], at acetylcholinesterase (setting [1]), the IC50 turned out to be 0.8 nM.

In the case of `O=C1c2cccc([N+](=O)[O-])c2C(=O)N1CCC1CCN(Cc2ccccc2)CC1` [Example 47], on acetylcholinesterase (setting [1]), the IC50 came out at 9 nM.

As to `CC(=O)Nc1ccc2c(c1)C(=O)N(CCC1CCN(Cc3ccccc3)CC1)C2=O` [Example 50], the IC50 at acetylcholinesterase (setting [1]) is 2.8 nM.

Consider `O=C(NCc1ccccc1)c1ccc2c(c1)C(=O)N(CCC1CCN(Cc3ccccc3)CC1)C2=O` [Example 51], for which, on acetylcholinesterase (setting [1]), the 50% inhibitory concentration (IC50) turned out to be 2.2 nM.

As for `CCN(CC)C(=O)c1ccc2c(c1)C(=O)N(CCC1CCN(Cc3ccccc3)CC1)C2=O` [Example 52], at acetylcholinesterase (setting [1]), the IC50 was determined as 1.5 nM.

As for `O=C(c1ccccc1)c1ccc2c(c1)C(=O)N(CCC1CCN(Cc3ccccc3)CC1)C2=O` [Example 53], the 50% inhibitory concentration (IC50) on acetylcholinesterase (setting [1]) worked out at 2.4 nM.

Regarding `COc1ccc2c(c1)C(=O)N(CCC1CCN(Cc3ccccc3)CC1)C2=O` [Example 54], on acetylcholinesterase, the IC50 was found to be 8 nM.

Take `COc1cc2c(cc1Cl)C(=O)N(CCC1CCN(Cc3ccccc3)CC1)C2=O` [Example 56]: the concentration for half-maximal inhibition (IC50) on acetylcholinesterase (setting [1]) turned out to be 3.3 nM.

For `O=C1c2cc3ccccc3cc2C(=O)N1CCC1CCN(Cc2ccccc2)CC1` [Example 57], the concentration for half-maximal inhibition (IC50) on acetylcholinesterase (setting [1]) came out at 1.2 nM.

For `O=C1c2cccnc2C(=O)N1CCC1CCN(Cc2ccccc2)CC1` [Example 58], the IC50 on acetylcholinesterase (setting [1]) came out at 13 nM.

On to `O=c1[nH]c2cc(Cl)ccc2c(=O)n1CCC1CCN(Cc2ccccc2)CC1` [Example 68], for which, at acetylcholinesterase (setting [1]), the IC50 is 4.5 nM.

Consider `O=C(NCCC1CCN(Cc2ccccc2)CC1)c1ccc([N+](=O)[O-])cc1` [Example 71], for which the IC50 at acetylcholinesterase (setting [1]) was 55 nM.

Take `O=C(NCCC1CCN(Cc2ccccc2)CC1)c1ccc(SCc2ccccc2)cc1` [Example 88]: the IC50 on acetylcholinesterase (setting [1]) amounted to 49 nM.

Take `O=C(Nc1ccc2c(c1)C(=O)N(CCC1CCN(Cc3ccccc3)CC1)C2=O)c1ccccc1` [Example 111]: the 50% inhibitory concentration (IC50) on acetylcholinesterase (setting [1]) stood at 0.88 nM.

Take `O=c1c2cc3c(=O)n(CCC4CCN(Cc5ccccc5)CC4)c(=O)c3cc2c(=O)n1CCC1CCN(Cc2ccccc2)CC1` [Example 112]: the concentration for half-maximal inhibition (IC50) on acetylcholinesterase (setting [1]) was 0.15 nM.

On to `Cc1ccc2[nH]c(=O)n(CCC3CCN(Cc4ccccc4)CC3)c(=O)c2c1` [Example 113], for which, at acetylcholinesterase (setting [1]), the IC50 was 4.7 nM.

With `O=C(NCCC1CCN(Cc2ccccc2)CC1)c1ccc(SCCl)cc1` [Example 115], the IC50 on acetylcholinesterase (setting [1]) was found to be 6.7 nM.

Consider `O=C1c2ccc(Cl)cc2C(=O)N1CCC1CCN(Cc2ccccc2)CC1` [Example 133], for which the IC50 on acetylcholinesterase (setting [1]) was 7.9 nM.
